Measurements: patent publication US20210220333A1, “COMPOSITIONS AND METHODS FOR PREVENTING AND/OR TREATING FILARIAL DISEASE” (priority 2018, published 2021)
Where “and” joins values, the source holds several entries; their conditions need not be identical. Identical values can stand only once. Like-named read-outs stand apart in the source and are kept apart here.

Tests used:
[1] = system: adult B. malayi female worms; assay: Adult female B. malayi incubation with UGT inhibitor in combination with albendazole, worm motility; type: cell-based, Brugia malayi; settings: 8 days
Method: (§1) Worm motility: Worms were visualized with a dissecting microscope by an observer blinded to treatment category. Motility of the adult female B. malayi worms was rated based on the following scale: 4=active movement, 3=modest reduction in movement, 2=severe reduction in movement, 1=twitching, and 0=no movement.
For the probenecid samples, adult female worms were incubated in culture media with the drug for 8 days at concentration of 100 μM alone or in combination with 10 μM of albendazole. Worms were transferred into new media with corresponding drug concentrations every other day. As a negative control, worms were incubated in culture media alone. Worm motility was scored using a previously established scale as described in Example 3 for the course of the experiment.

[2] = system: adult B. malayi female worms; assay: Adult B. malayi worm incubation with UGT inhibitors, worm motility score (macrofilaricidal activity in vitro); type: cell-based, Brugia malayi; settings: for Lowest effective concentration (lowest concentration with significant effect on motility): adult worms in vitro
Method: For the siRNA experiments, data was analyzed using one-way analysis of variance (ANOVA) or T-test by PRISM 7.0 (GraphPad Software, La Jolla, Calif., US). Following ANOVA, individual comparisons of mean values were performed using Tukey's multiple comparisons test. For the UGT inhibitor experiments, area under curve (AUC) analysis was performed followed by one-way ANOVA to determine significance. Statistical significance between the experimental and control groups was designated as follows: * for p values<0.05, ** for p values<0.01, and *** for p values<0.001.
as §1
For probenecid, adult female worms were incubated in culture media with the drug for 7 days at concentrations of 5000 μM, 500 μM, 250 μM, and 100 μM. Worms were transferred into new media with corresponding drug concentrations every other day. As a negative control, worms were incubated in culture media alone. Worm motility was scored using the previously mentioned scale described in Example 3 for the course of the experiment.

B. malayi microfilariae = B. malayi microfilariae incubation with UGT inhibitors (microfilaricidal activity in vitro); type: cell-based, Brugia malayi; settings: 500 μM
Method: B. malayi microfilariae incubation with UGT inhibitors: The above UGT inhibitors were evaluated for microfilaricidal activity in vitro. For each drug, experiments were performed in triplicate at a concentration of 2×10^4 Mf/mL in culture media. Viability was determined by quantifying the number of motile larvae from 100 randomly selected microfilariae per well. […] As a negative control, larvae were incubated in culture media alone. The UGT inhibitor experiments were repeated two times under similar conditions.

[3] = UGT inhibitor LDH cytotoxicity assay; type: cell-based; settings: human
Method: UGT Inhibitor Cytotoxicity Assay: Cytotoxicity of the UGT inhibitors was measured using a Pierce LDH Cytotoxicity Assay Kit (Thermo Fisher Scientific, Carlsbad, Calif., US). HEK cells were seeded at 5×10^4 per well in DMEM (Quality Biological, Gaithersburg, Md., US) with 10% Hyclone Cosmic Calf Serum (Thermo Fisher Scientific, Carlsbad, Calif., US), 200 μM of L-glutamine (Quality Biological, Gaithersburg, Md., US), and 50 μg/mL of gentamicin (Quality Biological, Gaithersburg, Md., US) at 37° C. in 5% CO2. The cells were then incubated with various concentrations of the UGT inhibitors overnight. Following this, 50 μL of media was transferred from each well to a new 96-well plate and then added 50 μL of reaction buffer. The mixture was incubated for 30 minutes and then added 50 μL of stop solution. Absorbance was measured at 490 nm and 680 nm. The following controls were included in the experiment: a spontaneous lactate dehydrogenase (LDH) activity control that was incubated with the vehicle only and a maximum LDH activity control that was incubated with nothing but later lysed prior to incubation with the reaction buffer. Absorbance was calculated for each well by subtracting the 680 nm absorbance value (background) from the 490 nm absorbance value. Percent cytotoxicity was calculated using the following equation (Formula 1): [formula]

[4] = cited from earlier work

SMILES | Adult worm motility, area under the curve (AUC) ([1]; 10 μM albendazole alone) | Macrofilaricidal activity compared to media alone ([1]; 10 μM alone) | Macrofilaricidal activity in vitro ([2]; 500 μM) | Adult worm motility, area under the curve (AUC) ([2]; 5000 μM, 7 days, media control AUC 24.18) | Macrofilaricidal activity in vitro ([2]; adult worms) | Lowest effective concentration (lowest concentration with significant effect on motility) [2] [µM] | Microfilaricidal effect (B. malayi microfilariae) | cytotoxicity at 100 µM [3] [%] | cytotoxicity at 250 µM [3] [%] | cytotoxicity at 500 µM [3] [%] | cytotoxicity at 5000 µM [3] [%] | Adverse events in humans ([4]; single 2 g oral dose) | Peak concentration in humans ([4]; single 2 g oral dose) | cytotoxicity at 40 µM ([3]; HEK cells, 40 μM, overnight, LDH) [%] | cytotoxicity at 100 µM ([3]; HEK cells, 100 μM, overnight, LDH, read-out: % Cytotoxicity) [%] | cytotoxicity at 200 µM ([3]; HEK cells, 200 μM, overnight, LDH) [%] | cytotoxicity at 2000 µM ([3]; HEK cells, 2000 μM, overnight, LDH) [%] | Cmax ([4]; 400 mg dose, read-out: Maximum concentration (Cmax) in humans) [µM]
CCCSc1ccc2nc(NC(=O)OC)[nH]c2c1 [albendazole] | 29.63 | Limited macrofilaricidal activity | – | – | – | – | – | – | – | – | – | – | – | – | – | – | – | –
CCCN(CCC)S(=O)(=O)c1ccc(C(=O)O)cc1 [probenecid, p-(di-n-propylsulphamyl)-benzoic acid] | – | – | robust macrofilaricidal activity | 8.1 | exhibited macrofilaricidal activity in vitro | 500 | no clear microfilaricidal effect | -2.69 | -0.67 | -1.34 | -2.49 | minimal adverse events | 148.6 μg/mL and 520.7 μM | – | – | – | – | –
O=C1C(CC[S+]([O-])c2ccccc2)C(=O)N(c2ccccc2)N1c1ccccc1 (stereo not shown) [sulfinpyrazone] | – | – | – | – | – | 200 | – | – | – | – | – | – | – | -4.03 | -4.46 | -5.35 | -4.14 | 79.9
